From paper PMC9518244, “TiO2 nanotube immobilised 5-lipoxygenase-mediated screening and isolation of anti-inflammatory active compounds from the leaves of lonicera japonica thunb” (Journal of Enzyme Inhibition and Medicinal Chemistry, 2022)
Where two headings read alike, the source gives them in different places.

Tests used:
[1] = tested on: rat foot swelling; experiment: Rat foot swelling model (egg white); assay type: in vivo; conditions: 5.0 mg/kg intraperitoneal, 10-60 min after egg white
Procedure: the NO kit, and the amount of NO produced in each well was calculated. Each group of experiment was performed in parallel three times.
All the animals were acclimated under standard laboratory conditions and had free access to standard water and food. All procedures were conducted in accordance with the “Guiding Principles in the Care and Use of Animals” (China) and were approved by the Ethics Committee of Biomedical Scientific Research of Henan University.
Thirty two male and female rats were divided into four groups with eight rats in each group.
They were normal saline negative control group, dexamethasone positive control group, n-butanol phase of Lonicera japonica Thunb. leaves (RDY nB) administration group and the […]
The intraperitoneal injection method was used
One hour after injection the corresponding drugs in each group, 0.1 mL of fresh egg white was injected into the right postal paw of each rat. Before and after the injection of egg white at 10, 20, 30, 40, 50, and 60 min, the volume of the right postal paw of rat was measured by a toe volume meter, and the swelling rate was calculated. […]
Statistical analysis was analyzed by one-way ANOVA through SPSS 17.0 software, and all data expressed as mean ± SD. Meanwhile, the significant difference between groups was evaluated by Tukey post-hoc test, P<0.05 and P<0.01 were considered statistically Information Classification: General […]

[2] = tested on: RAW264.7 cells; experiment: NO production in LPS-stimulated RAW264.7 cells (NO kit); assay type: cell-based, mouse; conditions: for LPS-induced NO release in RAW264.7 cells (in words): compared with the model group
[3] = target: T1, 5-LOX (Glycine max, UniProt P08170); experiment: 5-LOX immobilised on TiO2 nanotubes microreactor screening (HPLC peak area ratio); assay type: binding; conditions: analytes of LLJT extract eluted from immobilised 5-LOX, HPLC-MS
T1 sequence (P08170 whole entry): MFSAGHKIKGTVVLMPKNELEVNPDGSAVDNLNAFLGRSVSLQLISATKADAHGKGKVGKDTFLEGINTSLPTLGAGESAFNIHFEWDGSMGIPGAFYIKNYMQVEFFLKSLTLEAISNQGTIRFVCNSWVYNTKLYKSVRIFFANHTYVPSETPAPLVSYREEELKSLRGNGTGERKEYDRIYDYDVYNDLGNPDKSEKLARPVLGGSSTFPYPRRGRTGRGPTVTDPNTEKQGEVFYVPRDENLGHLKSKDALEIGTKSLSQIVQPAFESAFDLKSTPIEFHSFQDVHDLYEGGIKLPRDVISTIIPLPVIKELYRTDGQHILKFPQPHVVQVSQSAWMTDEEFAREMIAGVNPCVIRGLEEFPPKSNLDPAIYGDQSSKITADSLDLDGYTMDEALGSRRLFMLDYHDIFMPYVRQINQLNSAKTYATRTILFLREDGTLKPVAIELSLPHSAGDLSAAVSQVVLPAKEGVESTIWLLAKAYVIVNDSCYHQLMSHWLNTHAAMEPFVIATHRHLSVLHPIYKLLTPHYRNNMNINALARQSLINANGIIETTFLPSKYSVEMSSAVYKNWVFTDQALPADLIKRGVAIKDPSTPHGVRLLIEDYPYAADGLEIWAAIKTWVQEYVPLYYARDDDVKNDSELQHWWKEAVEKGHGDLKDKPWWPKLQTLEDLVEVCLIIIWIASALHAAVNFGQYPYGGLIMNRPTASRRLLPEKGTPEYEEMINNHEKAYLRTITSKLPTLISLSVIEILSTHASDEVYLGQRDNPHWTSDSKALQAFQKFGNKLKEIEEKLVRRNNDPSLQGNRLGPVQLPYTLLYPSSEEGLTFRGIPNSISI
Procedure: Glutaraldehyde (GA) was used as crosslinking agent to covalently immobilise 5-LOX on the amino terminated TNTs. The NH2-TNTs was added to GA solution and shaken in a incubator at room temperature (25 °C) for 8 h. The resulting product was labelled GA-TNTs. Then GA-TNTs was merged with Tris-HCl solution (0.1 M, pH 7.0) containing a certain amount of 5-LOX, and the immobilisation was performed in a shaker at 4 °C for a certain time. After that, the immobilised 5-LOX was acquired by centrifuge to remove supernatant and comprehensively rinsed with Tris-HCl buffer solution several times to remove the unimmobilised enzyme. The 5-LOX-TNTs composites were suspended in Tris-HCl solution and stored at 4 °C before use.
The crude extract of leaves of Lonicera japonica Thunb. was added to 5% (v/v) methanol-Tris buffer solution, and dissolved by ultrasonic to prepare an incubation solution with a concentration of about 5.66 mg/mL. Then 25 mg of material immobilised with 5-LOX was combined with 1 mL of incubation solution and incubated at 25 °C for 90 min on a shaker. After incubation, the material was washed with 1 mL of buffer solution for six times. Then 1 mL of 90% (v/v) acetonitrile aqueous solution was used for ultrasonic elution for 10 min. After centrifugation, the supernatant was filtered and analysed by HPLC-MS.
The screening processes were the same as above.

[4] = tested on: RAW264.7 cells; experiment: Cell morphology observation of RAW264.7 cells; assay type: cell-based, mouse; conditions: 60 μM, with and without LPS 100 ng/mL, microscope 200x
Procedure: The RAW264.7 mouse macrophage cell line (RAW264.7) was cultured in DMEM (Dulbecco's modified eagle medium) supplemented with 10% (v/v) Fetal bovine serum (FBS), 1×105 U·L-1 penicillin and 100 mg·L-1 streptomycin under an atmosphere of humidified 5% CO2 at 37 °C to the logarithmic phase. The samples were dissolved in DMSO and diluted with medium to the desired concentration. The content of DMSO should not exceed 1‰.
There are blank group (no test sample, no LPS), model group (100 ng/mL LPS), experimental group (60 μM test sample + LPS) and negative control group (60 μM test sample) were tested.
For cell morphology observation , the cells were seeded into 6 -well plates at an inoculation amount of 6 ×10^5/well, cultured at 37 °C and 5% CO2 for 24 h, and then the medium was changed. After 2 h incubation with different groups, LPS stimulation with a final concentration of 100 ng/mL were added into the model group and experimental group .
normal group and the negative control group were added with the same volume of PBS, and then photographed under a microscope (200x) after 22 h.

[5] = tested on: RAW264.7 cells; experiment: Cytotoxicity assay (CCK-8) in RAW264.7 cells; assay type: cell-based, mouse; conditions: for Toxicity on RAW264.7 cells (in words): 20-60 μM, luteolin 1-5 μM
Procedure: (§1) For cytotoxicity assay, RAW264.7 cells were seeded in 96-well plates at an inoculation amount of 3 × 10^4/well, and the medium was changed after culturing for 24 h at 37 °C and 5% […]
(§2) concentration (20 μM, 40 μM and 60 μM) of sample solution prepared with fresh medium was added dropwise to 96-well plate. After incubation for 2 h, LPS with a final concentration of 100 ng/mL was added to each well of the experimental group and the model group , the same volume of PBS was added to the normal group and the negative control group. After stimulation for another 22 h, the medium was removed and replaced with fresh medium. 10 μL of CCK-8 reagent was added at room temperature in the dark, and the absorbance was measured at a wavelength of 450 nm after 1 h. […]

[6] = Cytotoxicity assay (CCK-8) in RAW264.7 cells; assay type: cell-based, mouse; conditions: mouse, RAW264.7 cells, read-out: Cell viability (%)
Procedure: as §1, §2

[7] = Cytotoxicity assay (CCK-8) in RAW264.7 cells; assay type: cell-based; conditions: mouse, no LPS, read-out: Cell viability (%)
[8] = tested on: 5-LOX; design: method as in earlier work; conditions: RBL-1 cells; cited from earlier work
[9] = target: T1, 5-LOX; experiment: Offline enzyme model: 5-LOX inhibition, linoleic acid / FOX reagent, A590; assay type: biochemical; conditions: concentration 1.0 mmol/L
Text: Specific steps were as follows:
Information Classification: General
(1 picture or pasted object on this page, not shown here)

[10] = 40 μmol/L, LPS 100 ng/mL, vs model group
[11] = 60 μmol/L, LPS 100 ng/mL, vs model group

Compound	NO content ([2]; 20 μmol/L, LPS 100 ng/mL) [µmol/L]	NO content ([2]; 20 μmol/L, no LPS) [µmol/L]	NO content ([2]; 40 μmol/L, LPS 100 ng/mL) [µmol/L]	NO content ([2]; 60 μmol/L, LPS 100 ng/mL) [µmol/L]	LPS-induced NO release in RAW264.7 cells (in words) ([2]; LPS 100 ng/mL)	Bonding rate (%) [3] [%]	Effect on morphology of RAW264.7 cells [4]	Toxicity on RAW264.7 cells (in words) [5]	viability at 24 h, 20 μmol/L ([6]; LPS 100 ng/mL) [%]	viability at 24 h, 20 μmol/L ([6]; no LPS) [%]	viability at 24 h, 40 μmol/L ([6]; LPS 100 ng/mL) [%]	viability at 24 h, 40 μmol/L ([6]; no LPS) [%]	viability at 24 h, 60 μmol/L ([6]; LPS 100 ng/mL) [%]	viability at 24 h, 60 μmol/L ([6]; no LPS) [%]	Inhibition rate (%) of NO production [2, 10] [%]	Inhibition rate (%) of NO production [2, 11] [%]	Inhibitory rate (%) [9] [%]	Cell viability (%) ([5]; 20 μmol/L, LPS 100 ng/mL)	Cell viability (%) ([5]; 20 μmol/L, no LPS)	Cell viability (%) ([5]; 40 μmol/L, LPS 100 ng/mL)	also measured
C[C@@H]1C[C@H]2[C@@H]3CCC4=CC(=O)C=C[C@]4(C)[C@@]3(F)[C@@H](O)C[C@]2(C)[C@@]1(O)C(=O)CO [Dexamethasone]	–	–	–	–	–	–	–	–	–	–	–	–	–	–	–	–	–	–	–	–	Anti-inflammatory effect, foot swelling rate [1]: showed a good anti-inflammatory effect
C[C@@H]1O[C@@H](O[C@H]2[C@H](Oc3cc(O)c4c(=O)cc(-c5ccc(O)c(O)c5)oc4c3)O[C@H](CO)[C@@H](O)[C@@H]2O)[C@H](O)[C@H](O)[C@H]1O [Lonicerin, lonicerin]	6.9 ± 0.3	6.1 ± 0.1	7.4 ± 0.2	7.9 ± 2.4	could also inhibit LPS-induced NO release	23.42	improve the deformation of the inflammatory cells	low toxicity on RAW264.7 cells	216 ± 4.2	196.2 ± 1.8	204 ± 3.5	180 ± 9.1	226 ± 7.8	179.4 ± 0.8	–	–	–	–	–	–	inhibition at 20 µM ([2]; Mus musculus, RAW264.7, 20 μmol/L, LPS 100 ng/mL, vs model group, read-out: Inhibition rate (%) of NO production): 23.7%; inhibition at 40 µM ([2]; Mus musculus, RAW264.7, 40 μmol/L, LPS 100 ng/mL, vs model group, read-out: Inhibition rate (%) of NO production): 18.5%; inhibition at 60 µM ([2]; Mus musculus, RAW264.7, 60 μmol/L, LPS 100 ng/mL, vs model group, read-out: Inhibition rate (%) of NO production): 12.4%
O=c1cc(-c2ccc(O)c(O)c2)oc2cc(O)cc(O)c12 [Luteolin, luteolin]	–	–	–	–	failed to inhibit	34.85	cause a large number of cell death	–	52.6 ± 3.1	49.5 ± 3.9	33.4 ± 12.9	22 ± 2.4	1.4 ± 0.6	1.5 ± 0.4	–	–	–	–	–	–	viability at 24 h, 2 μmol/L [7]: 104 ± 8.5%; NO content ([2]; 1 μmol/L, LPS 100 ng/mL): 14.4 ± 0.4 µmol/L; NO content ([2]; 1 μmol/L, no LPS): 11.6 ± 0.6 µmol/L; NO content ([2]; 2 μmol/L, LPS 100 ng/mL): 12.1 ± 0.1 µmol/L; NO content ([2]; 5 μmol/L, LPS 100 ng/mL): 9.4 ± 0.5 µmol/L; inhibition at 1 µM ([2]; Mus musculus, RAW264.7, 1 μmol/L, LPS 100 ng/mL, vs model group, read-out: Inhibition rate (%) of NO production): -51.1%; inhibition at 2 µM ([2]; Mus musculus, RAW264.7, 2 μmol/L, LPS 100 ng/mL, vs model group, read-out: Inhibition rate (%) of NO production): -26.4%; inhibition at 5 µM ([2]; Mus musculus, RAW264.7, 5 μmol/L, LPS 100 ng/mL, vs model group, read-out: Inhibition rate (%) of NO production): 1.8%; viability at 24 h, 1 μmol/L ([6]; LPS 100 ng/mL): 195 ± 2.6%; viability at 24 h, 1 μmol/L ([6]; no LPS): 120 ± 7.2%; viability at 24 h, 2 μmol/L ([6]; 2 μmol/L, LPS 100 ng/mL): 199 ± 8.6%; viability at 24 h, 5 μmol/L ([6]; 5 μmol/L, LPS 100 ng/mL): 170 ± 3.5%; IC50 [8]: 810 nM
O=C(/C=C/c1ccc(O)c(O)c1)O[C@H]1[C@H](O)C[C@](O)(C(=O)O)C[C@H]1OC(=O)/C=C/c1ccc(O)c(O)c1 [Isochlorogenic acid C, isochlorogenic acid C]	6.6 ± 0.3	5.9 ± 0.4	6.7 ± 0.6	7.2 ± 0.6	can inhibit LPS-induced NO release in RAW264.7 cells	6.34	improve the deformation of the inflammatory cells	low toxicity on RAW264.7 cells	–	–	–	–	–	–	25.6	19.9	40.24	206.6±7.8	140.0±7.6	188.8±1.4	Cell viability (%) ([5]; 40 μmol/L, no LPS): 190.4±0.2%; Cell viability (%) ([5]; 60 μmol/L, LPS 100 ng/mL): 201.4±3.8%; Cell viability (%) ([5]; 60 μmol/L, no LPS): 186.6±4.1%
O=c1cc(-c2ccc(O)c(O)c2)oc2cc(O[C@@H]3O[C@H](CO)[C@@H](O)[C@H](O)[C@H]3O)cc(O)c12 [Luteoloside, luteoloside]	11.5 ± 0.1	15.8 ± 1.5	11.9 ± 0.5	13.6 ± 1.3	failed to inhibit	8.87	no significant effect on cells	–	–	–	–	–	–	–	-24.9	-43.0	27.26	102.6±0.4	100.2±2.1	104.2±3.4	Inhibition rate (%) of NO production ([2]; 20 μmol/L, LPS 100 ng/mL, vs model group): -20.2%; Cell viability (%) ([5]; 40 μmol/L, no LPS): 102.1±1.7%; Cell viability (%) ([5]; 60 μmol/L, LPS 100 ng/mL): 103.2±4.8%; Cell viability (%) ([5]; 60 μmol/L, no LPS): 56.8±8.8%
